Assay results taken from PubChem BioAssay AID192 (DTP/NCI, 2004).
Several values for one entry are separate records, joined by “and”; a condition that tells them apart may be missing. Equal entries are not always repeated. Inconclusive results and toxic doses are left out.

System: BDF1 mice, B16 melanoma ip, median survival T/C
Assay: NCI In Vivo Anticancer Drug Screen. Data for tumor model B16 Melanoma (intraperitoneal) in B6D2F1 (BDF1) mice
Conditions: endpoint: median survival time, higher = longer survival
Method in brief: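 Vehicle-treated animals serve as the reference (C); treated animals (T) are scored for survival or tumor size after tumor transplantation.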

[1] = dose: 25.0 mg/kg/injection, schedule: Q01DX009 (ip), vehicle: saline with Tween-80
[2] = dose: 50.0 mg/kg/injection, schedule: Q01DX009 (ip), vehicle: saline with Tween-80
[3] = dose: 100.0 mg/kg/injection, schedule: Q01DX009 (ip), vehicle: saline with Tween-80
[4] = dose: 12.5 mg/kg/injection, schedule: Q01DX009 (ip), vehicle: saline with Tween-80
[5] = dose: 25.0 mg/kg/injection, schedule: Q04DX003 (ip), vehicle: Klucel (hydroxypropylcellulose) (HPC)
[6] = dose: 50.0 mg/kg/injection, schedule: Q04DX003 (ip), vehicle: Klucel (hydroxypropylcellulose) (HPC)
[7] = dose: 100.0 mg/kg/injection, schedule: Q04DX003 (ip), vehicle: Klucel (hydroxypropylcellulose) (HPC)
[8] = dose: 0.19 mg/kg/injection, schedule: Q01DX009 (ip), vehicle: Klucel (hydroxypropylcellulose) (HPC)
[9] = dose: 0.39 mg/kg/injection, schedule: Q01DX009 (ip), vehicle: Klucel (hydroxypropylcellulose) (HPC)
[10] = dose: 0.78 mg/kg/injection, schedule: Q01DX009 (ip), vehicle: Klucel (hydroxypropylcellulose) (HPC)
[11] = dose: 12.5 mg/kg/injection, schedule: Q01DX009 (ip), vehicle: Klucel (hydroxypropylcellulose) (HPC)
[12] = dose: 25.0 mg/kg/injection, schedule: Q01DX009 (ip), vehicle: Klucel (hydroxypropylcellulose) (HPC)
[13] = dose: 100.0 mg/kg/injection, schedule: Q01DX009 (ip), vehicle: Klucel (hydroxypropylcellulose) (HPC)
[14] = dose: 3.12 mg/kg/injection, schedule: Q01DX009 (ip), vehicle: Klucel (hydroxypropylcellulose) (HPC)
[15] = dose: 200.0 mg/kg/injection, schedule: Q01DX009 (ip), vehicle: saline with Tween-80
[16] = dose: 400.0 mg/kg/injection, schedule: Q01DX009 (ip), vehicle: saline with Tween-80

COC(=O)C1C2CC3c4[nH]c5cc(OC)ccc5c4CCN3CC2CC(OC)C1OC (stereo unspecified)
T/C (dose: 0.25 mg/kg/injection, schedule: Q01DX009 (ip), vehicle: saline): 102 % of control
T/C (dose: 0.5 mg/kg/injection, schedule: Q01DX009 (ip), vehicle: saline): 94 % of control
T/C (dose: 1.0 mg/kg/injection, schedule: Q01DX009 (ip), vehicle: saline): 105 % of control
T/C (dose: 1.56 mg/kg/injection, schedule: Q01DX009 (ip), vehicle: saline): 100 % of control
T/C (dose: 3.12 mg/kg/injection, schedule: Q01DX009 (ip), vehicle: saline): 98 % of control
T/C (dose: 4.0 mg/kg/injection, schedule: Q01DX009 (ip), vehicle: saline): 94 % of control and 100 % of control
T/C (dose: 6.25 mg/kg/injection, schedule: Q01DX009 (ip), vehicle: saline): 103 % of control
T/C (dose: 8.0 mg/kg/injection, schedule: Q01DX009 (ip), vehicle: saline): 104 % of control
T/C (dose: 12.5 mg/kg/injection, schedule: Q01DX009 (ip), vehicle: saline): 106 % of control
T/C (dose: 16.0 mg/kg/injection, schedule: Q01DX009 (ip), vehicle: saline): 99 % of control
T/C (dose: 25.0 mg/kg/injection, schedule: Q01DX009 (ip), vehicle: saline): 101 % of control
T/C (dose: 32.0 mg/kg/injection, schedule: Q01DX009 (ip), vehicle: saline): 94 % of control

CC(C)(C)OC(=O)NC(Cc1ccc(OCc2c(Cl)cccc2Cl)cc1)C(=O)O (stereo unspecified)
T/C [1]: 101 % of control
T/C [2]: 104 % of control
T/C [3]: 86 % of control

C#CCN(C)/N=N/c1nc[nH]c1C(N)=O
T/C [4]: 97 % of control
T/C [1]: 111 % of control
T/C [2]: 124 % of control

CC1(CO)C(O)CCC2(C)C1CCC1CC3CC12CCC3(O)CO (stereo unspecified)
T/C (dose: 0.78 mg/kg/injection, schedule: Q03HX020 (oral), vehicle: Klucel (hydroxypropylcellulose) (HPC)): 97 % of control
T/C (dose: 1.56 mg/kg/injection, schedule: Q03HX020 (oral), vehicle: Klucel (hydroxypropylcellulose) (HPC)): 107 % of control
T/C (dose: 3.12 mg/kg/injection, schedule: Q03HX020 (ip), vehicle: Klucel (hydroxypropylcellulose) (HPC)): 89 % of control
T/C (dose: 3.12 mg/kg/injection, schedule: Q03HX020 (oral), vehicle: Klucel (hydroxypropylcellulose) (HPC)): 99 % of control
T/C (dose: 6.25 mg/kg/injection, schedule: Q03HX020 (ip), vehicle: Klucel (hydroxypropylcellulose) (HPC)): 108 % of control
T/C (dose: 6.25 mg/kg/injection, schedule: Q03HX020 (oral), vehicle: Klucel (hydroxypropylcellulose) (HPC)): 102 % of control
T/C (dose: 12.5 mg/kg/injection, schedule: Q03HX020 (ip), vehicle: Klucel (hydroxypropylcellulose) (HPC)): 118 % of control
T/C (dose: 12.5 mg/kg/injection, schedule: Q03HX020 (oral), vehicle: Klucel (hydroxypropylcellulose) (HPC)): 99 % of control
T/C (dose: 25.0 mg/kg/injection, schedule: Q03HX020 (ip), vehicle: Klucel (hydroxypropylcellulose) (HPC)): 115 % of control
T/C (dose: 25.0 mg/kg/injection, schedule: Q03HX020 (oral), vehicle: Klucel (hydroxypropylcellulose) (HPC)): 98 % of control
T/C [5]: 100 % of control
T/C (dose: 50.0 mg/kg/injection, schedule: Q03HX020 (ip), vehicle: Klucel (hydroxypropylcellulose) (HPC)): 176 % of control
T/C (dose: 50.0 mg/kg/injection, schedule: Q03HX020 (oral), vehicle: Klucel (hydroxypropylcellulose) (HPC)): 104 % of control
T/C [6]: 105 % of control
T/C (dose: 100.0 mg/kg/injection, schedule: Q03HX020 (oral), vehicle: Klucel (hydroxypropylcellulose) (HPC)): 117 % of control
T/C [7]: 117 % of control
T/C (dose: 400.0 mg/kg/injection, schedule: Q04DX003 (ip), vehicle: Klucel (hydroxypropylcellulose) (HPC)): 163 % of control

O=C(CCCN1CCC(O)(c2cccc(C(F)(F)F)c2)CC1)c1ccc(F)cc1
T/C (dose: 0.04 mg/kg/injection, schedule: Q01DX009 (ip), vehicle: Klucel (hydroxypropylcellulose) (HPC)): 93 % of control
T/C [8]: 101 % of control
T/C [9]: 112 % of control
T/C [10]: 105 % of control
T/C (dose: 4.0 mg/kg/injection, schedule: Q01DX009 (ip), vehicle: Klucel (hydroxypropylcellulose) (HPC)): 95 % of control
T/C (dose: 8.0 mg/kg/injection, schedule: Q01DX009 (ip), vehicle: Klucel (hydroxypropylcellulose) (HPC)): 98 % of control

CC1(C)C(C#N)C(=O)N=C(N)C1C(N)=O (stereo unspecified)
T/C (dose: 12.0 mg/kg/injection, schedule: Q04DX003 (ip), vehicle: Klucel (hydroxypropylcellulose) (HPC)): 105 % of control
T/C [5]: 107 % of control
T/C [6]: 105 % of control
T/C [7]: 86 % of control and 100 % of control
T/C (dose: 200.0 mg/kg/injection, schedule: Q04DX003 (ip), vehicle: Klucel (hydroxypropylcellulose) (HPC)): 91 % of control

CCCCCCCCCCCCCCCCC(C(=O)O)C(O)(CC(=O)O)C(=O)O (stereo unspecified)
T/C [11]: 101 % of control
T/C [12]: 90 % of control

O=C(O)c1c(O)c(-c2ccccc2)nc2ccccc12
T/C (dose: 50.0 mg/kg/injection, schedule: Q01DX009 (ip), vehicle: Klucel (hydroxypropylcellulose) (HPC)): 103 % of control
T/C [13]: 103 % of control

O=C1C(Cl)=C(Nc2ccc(C(=O)Nc3ccc4cc(S(=O)(=O)O)cc(S(=O)(=O)O)c4c3)cc2)C(=O)C(Cl)=C1Nc1ccc(C(=O)Nc2ccc3cc(S(=O)(=O)O)cc(S(=O)(=O)O)c3c2)cc1
T/C (dose: 50.0 mg/kg/injection, schedule: Q01DX009 (ip), vehicle: saline): 109 % of control
T/C (dose: 100.0 mg/kg/injection, schedule: Q01DX009 (ip), vehicle: saline): 102 % of control
T/C (dose: 200.0 mg/kg/injection, schedule: Q01DX009 (ip), vehicle: saline): 100 % of control

COC(=O)C1C2CC3c4[nH]c5cc(OC)ccc5c4CCN3CC2CC(OC2CCCCO2)C1OC (stereo unspecified)
T/C [8]: 112 % of control
T/C [9]: 104 % of control
T/C [10]: 103 % of control
T/C (dose: 0.78 mg/kg/injection, schedule: Q04DX003 (ip), vehicle: Klucel (hydroxypropylcellulose) (HPC)): 91 % of control
T/C (dose: 1.56 mg/kg/injection, schedule: Q01DX009 (ip), vehicle: Klucel (hydroxypropylcellulose) (HPC)): 101 % of control
T/C (dose: 1.56 mg/kg/injection, schedule: Q04DX003 (ip), vehicle: Klucel (hydroxypropylcellulose) (HPC)): 90 % of control
T/C [14]: 111 % of control
T/C (dose: 3.12 mg/kg/injection, schedule: Q04DX003 (ip), vehicle: Klucel (hydroxypropylcellulose) (HPC)): 96 % of control and 122 % of control
T/C (dose: 6.25 mg/kg/injection, schedule: Q04DX003 (ip), vehicle: Klucel (hydroxypropylcellulose) (HPC)): 98 % of control
T/C (dose: 12.5 mg/kg/injection, schedule: Q04DX003 (ip), vehicle: Klucel (hydroxypropylcellulose) (HPC)): 95 % of control and 111 % of control
T/C [5]: 113 % of control
T/C [6]: 111 % of control
T/C [7]: 100 % of control

O=C1C2(Cl)C3(Cl)C4(Cl)C(Cl)(Cl)C5(Cl)[C@]3(Cl)C1(Cl)[C@]5(Cl)C24Cl (stereo partly specified)
T/C [14]: 97 % of control
T/C (dose: 6.25 mg/kg/injection, schedule: Q01DX009 (ip), vehicle: Klucel (hydroxypropylcellulose) (HPC)): 105 % of control
T/C (dose: 6.25 mg/kg/injection, schedule: Q01DX009 (ip), vehicle: saline with Tween-80): 102 % of control
T/C [11]: 98 % of control
T/C [4]: 106 % of control
T/C [12]: 110 % of control

CC(C)CNC(=O)c1ccc(N=NN(C)Cc2ccncc2)cc1
T/C [1]: 93 % of control
T/C [2]: 97 % of control
T/C [3]: 103 % of control

CCCCOC(=O)C(C)OC(=O)Nc1cccc(Cl)c1 (stereo unspecified)
T/C [3]: 88 % of control
T/C [15]: 100 % of control
T/C [16]: 92 % of control

NNC(=S)N/N=C/c1ccc([N+](=O)[O-])s1
T/C [12]: 88 % of control
T/C [13]: 89 % of control

CCCCNC(=O)Oc1ccc(OCc2ccccc2)cc1
T/C [3]: 107 % of control
T/C [15]: 107 % of control
T/C [16]: 92 % of control

COc1cccc(CNc2ccc(C)cc2C)c1OC
T/C [13]: 96 % of control
T/C (dose: 200.0 mg/kg/injection, schedule: Q01DX009 (ip), vehicle: Klucel (hydroxypropylcellulose) (HPC)): 103 % of control
T/C (dose: 400.0 mg/kg/injection, schedule: Q01DX009 (ip), vehicle: Klucel (hydroxypropylcellulose) (HPC)): 96 % of control
